Data: ChEMBL document CHEMBL4622910, “Design, synthesis and evaluation of pyrazolopyrimidinone derivatives as novel PDE9A inhibitors for treatment of Alzheimer's disease” (Bioorg Med Chem Lett, 2020)
Converted amounts (≈) assume the structure as drawn.

Tests used:
[1] = Solubility of the compound in water; assay type: physicochemical
[2] = Half life in rat liver microsomes; assay type: ADME, Microsome
[3] = Hepatic clearance in rat liver microsomes; assay type: ADME, Microsome
[4] = Metabolic stability in rat liver microsomes; assay type: ADME, Microsome
[5] = species: Homo sapiens; assay: Selectivity for PDE1 (unknown origin) over PDE9 (unknown origin)
[6] = species: Homo sapiens; assay: Selectivity for PDE5 (unknown origin) over PDE9 (unknown origin)

SMILES	solubility [1] [µg/mL]	t1/2 [2] [min]	CLH [3] [mL/min/kg]	further results
C[C@@H](Nc1nc2c(cnn2C2CCCC2)c(=O)[nH]1)C(=O)Nc1ccc2[nH]ccc2c1	0.1 (≈ 0.247 µM)			
COc1ccc(NC(=O)[C@@H](C)Nc2nc3c(cnn3C3CCCC3)c(=O)[nH]2)cc1	0.04 (≈ 0.101 µM)	23.3	65.8	
C[C@@H](Nc1nc2c(cnn2C2CCCC2)c(=O)[nH]1)C(=O)Nc1ccc2c(c1)CNC2=O	0.1 (≈ 0.237 µM)			
C[C@@H](Nc1nc2c(cnn2C2CCCC2)c(=O)[nH]1)C(=O)Nc1ccncc1	20 (≈ 54.4 µM)			
C[C@@H](Nc1nc2c(cnn2C2CCCC2)c(=O)[nH]1)C(=O)Nc1cnc(Cl)nc1	0.5 (≈ 1.24 µM)			
C[C@@H](Nc1nc2c(cnn2C2CCCC2)c(=O)[nH]1)C(=O)NC1=NCCS1	0.03 (≈ 0.0799 µM)			
C[C@@H](Nc1nc2c(cnn2C2CCCC2)c(=O)[nH]1)C(=O)Nc1ccc2c(c1)CCC2=O	6 (≈ 14.3 µM)			
C[C@@H](Nc1nc2c(cnn2C2CCCC2)c(=O)[nH]1)C(=O)Nc1ccc2[nH]ncc2c1	103 (≈ 253 µM)	43.4	10	Stability [4]: 47.8%
C[C@@H](Nc1nc2c(cnn2C2CCCC2)c(=O)[nH]1)C(=O)Nc1nccs1	25 (≈ 66.9 µM)			
C[C@@H](Nc1nc2c(cnn2C2CCCC2)c(=O)[nH]1)C(=O)Nc1ccc(C(F)(F)F)cn1	6.3 (≈ 14.5 µM)			
C[C@@H](Nc1nc2c(cnn2C2CCCC2)c(=O)[nH]1)C(=O)Nc1ccc(C(F)(F)F)nc1	5.1 (≈ 11.7 µM)			
C[C@@H](Nc1nc2c(cnn2C2CCCC2)c(=O)[nH]1)C(=O)Nc1ccc(F)nc1	52 (≈ 135 µM)	32.8	11.8	Stability [4]: 41%
C[C@@H](Nc1nc2c(cnn2C2CCCC2)c(=O)[nH]1)C(=O)Nc1ccc2nccn2c1	74 (≈ 182 µM)	32.6	11.8	Stability [4]: 40.8%
C[C@@H](Nc1nc2c(cnn2C2CCCC2)c(=O)[nH]1)C(=O)Nc1ccc2[nH]cnc2c1	195 (≈ 480 µM)	57	9.07	Stability [4]: 54.7%
C[C@@H](Nc1nc2c(cnn2C2CCCC2)c(=O)[nH]1)C(=O)Nc1ccc2c(c1)COC2	0.03 (≈ 0.0734 µM)			
CC(Nc1nc2c(cnn2C2CCCC2)c(=O)[nH]1)c1ccc(Cl)cc1 (stereo unspecified)				Selectivity ratio [5]: 46; Selectivity ratio [6]: 31
